Reference: patent publication US20150328280A1, “ALISPORIVR FOR TREATMENT OF HEPATITIS C VIRUS INFECTION” (priority 2011, published 2015)

What was measured:
HCV genotype 1 [1] = test: study of alisporivir in HCV Genotype 1 non responder patients, decline in HCV RNA; assay type: in vivo, human; details: first week of treatment, with peg-IFNα2a plus RBV
Procedure: The efficacy of the therapy regimen may be monitored using standard protocols. Treatment may be followed by determinations of HCV in serum and measurement of serum ALT (alanine-aminotransferase) levels. For example, the patients may be assessed for the presence of HCV RNA in their plasma. HCV RNA (IU/mL) can be measured at regular intervals during the treatment, e.g., at Day 1 (pre-dose and 4, 8, and 12 hours post-dose) and pre-dose at Day 2, Day 3, Day 8, Day 15, Day 29, and at Week 12, Week 24, Week 36, Week 48, Week 72 (when applicable), and at follow up. In addition, the HCV strains in the patient can be sequenced and assessed for identification of mutations selecting for resistance.
In addition, study of the use of alisporivir in HCV Genotype 1 non responder patients addressed the utility of a 400 mg BID dose regimen versus the same total daily dose given once daily (800 mg QD) during the first week of treatment, both with peg-IFNα2a plus RBV, and the possible relationships between Cmax, AUC, or Cmin and antiviral effect at the end of that treatment period. In this hard to treat patient population, the 400 mg BID dose provided greater decline in HCV RNA from baseline (−1.41 log10 IU/m1) than the 800 mg QD dose (−0.70 log10 IU/ml). […]

HCV genotype 1 [2] = test: phase 2 study of genotype 1 treatment-naive patients, sustained virologic response; assay type: in vivo, human; details: alisporivir 600 mg BID for one week, then 600 mg QD, 48 week treatment, combined with peg-IFNa2a
Source text: The virological response parameters are: rapid virologic response at treatment week 4 (RVR 4) defined by undetectable serum HCV-RNA at treatment week 4; early virological response (EVR), defined by at least 2 log10 IU/mL reduction in HCV-RNA compared to baseline (partial EVR) or undetectable serum HCV-RNA (complete EVR) at treatment week 12; sustained virological response (SVR24), defined as absence of HCV-RNA from serum by a sensitive Polymerase Chain Reaction (PCR) assay 24 weeks following end of therapy or the HCV RNA is undetectable (by LOD) 24 weeks after end of treatment; End of Treatment Response (ETR): HCV RNA undetectable (by LOD) at treatment end (completed or prematurely discontinued).

[3] = boceprevir recipients; cited from earlier work

Row | Structure (SMILES) | decline in HCV RNA from baseline (HCV genotype 1 [1]; 400 mg BID) | decline in HCV RNA from baseline (HCV genotype 1 [1]; 800 mg QD) | rates of achievement of sustained virologic response (SVR) versus peg-IFNα2a (HCV genotype 1 [2]) | treatment-emergent anemia versus pegylated interferon and ribavirin recipients [3]
1 | C/C=C/C[C@@H](C)[C@@H](O)[C@H]1C(=O)N[C@@H](CC)C(=O)N(C)[C@H](C)C(=O)N(CC)[C@@H](C(C)C)C(=O)N[C@@H](C(C)C)C(=O)N(C)[C@@H](CC(C)C)C(=O)N[C@@H](C)C(=O)N[C@H](C)C(=O)N(C)[C@@H](CC(C)C)C(=O)N(C)[C@@H](CC(C)C)C(=O)N(C)[C@@H](C(C)C)C(=O)N1C [alisporivir, Alisporivir] | −1.41 log10 IU/m1 | −0.70 log10 IU/ml | superior | 
2 | CC(C)(C)NC(=O)N[C@H](C(=O)N1C[C@H]2[C@@H]([C@H]1C(=O)NC(CC1CCC1)C(=O)C(N)=O)C2(C)C)C(C)(C)C (stereo partly shown) [boceprevir] |  |  |  | significantly higher
